Results: ChEMBL document CHEMBL3044635, “Effect of propiconazole and difenoconazole on the control of anthracnose of chilli fruits caused by Colletotrichum capsici” (Crop Prot, 2006)

Assays:
Colletotrichum truncatum [1] = assay: Fungicidal activity against Colletotrichum capsici assessed as linear growth at 25 ug/ml incubated 16 hr photoperiod for 20 days (reference value: 90 mm); format: functional
Colletotrichum truncatum [2] = assay: Fungicidal activity against Colletotrichum capsici assessed as sporulation at 0.5 ug/ml incubated 16 hr photoperiod for 20 days by haemocytometer (reference value: 0.081 x 10^6 ml'-1); format: functional
Colletotrichum truncatum [3] = assay: Fungicidal activity against Colletotrichum capsici assessed as reduction of pectin trans-eliminase production at 1 ug/ml incubated for 10 days measured up to 120 min by Ostwald-Fenske viscometric analysis (reference value: 38.5%); format: functional; parameters: scale not given: the % may be the effect or the level left
Colletotrichum truncatum [4] = assay: Fungicidal activity against Colletotrichum capsici assessed as linear growth at 10 ug/ml incubated 16 hr photoperiod for 20 days (reference value: 90 mm); format: functional
Colletotrichum truncatum [5] = assay: Fungicidal activity against Colletotrichum capsici assessed as sporulation at 1 ug/ml incubated 16 hr photoperiod for 20 days by haemocytometer (reference value: 0.081 x 10^6 ml'-1); format: functional
Colletotrichum truncatum [6] = assay: Fungicidal activity against Colletotrichum capsici assessed as mycelial biomass at 25 ug/ml incubated 16 hr photoperiod for 20 days (reference value: 675 mg); format: functional
Colletotrichum truncatum [7] = assay: Fungicidal activity against Colletotrichum capsici assessed as sporulation at 50 ug/ml incubated 16 hr photoperiod for 20 days by haemocytometer (reference value: 0.081 x 10^6 ml'-1); format: functional
Colletotrichum truncatum [8] = assay: Fungicidal activity against Colletotrichum capsici infected chilli plant assessed as fruit length at 0.1% applied as spray on day 10 post inoculation and twice every 20 days measured on day 155 post sowing in green house conditions (reference value: 6.8 to 7 cm); format: functional
Colletotrichum truncatum [9] = assay: Fungicidal activity against Colletotrichum capsici assessed as linear growth at 0.5 ug/ml incubated 16 hr photoperiod for 20 days (reference value: 90 mm); format: functional
Colletotrichum truncatum [10] = assay: Fungicidal activity against Colletotrichum capsici infected chilli plant assessed as fruit mass measured per pot at 0.1% applied as spray on day 10 post inoculation and twice every 20 days measured on day 155 post sowing in green house conditions (reference value: 85.3 to 94.5 g); format: functional
Colletotrichum truncatum [11] = assay: Fungicidal activity against Colletotrichum capsici infected chilli plant assessed as fruit length measured per plot at 0.1% applied as spray on day 10 post inoculation and twice every 20 days measured on day 155 post sowing in field conditions (reference value: 8 to 8.7 cm); format: functional
Colletotrichum truncatum [12] = assay: Fungicidal activity against Colletotrichum capsici assessed as sporulation at 0.1 ug/ml incubated 16 hr photoperiod for 20 days by haemocytometer (reference value: 0.081 x 10^6 ml'-1); format: functional
Colletotrichum truncatum [13] = assay: Fungicidal activity against Colletotrichum capsici infected chilli plant assessed as fruit yield measured per plot at 0.1% applied as spray on day 10 post inoculation and twice every 20 days measured on day 155 post sowing in field conditions (reference value: 8.25 to 9.3 kg); format: functional
Colletotrichum truncatum [14] = assay: Fungicidal activity against Colletotrichum capsici assessed as linear growth at 50 ug/ml incubated 16 hr photoperiod for 20 days (reference value: 90 mm); format: functional
Colletotrichum truncatum [15] = assay: Fungicidal activity against Colletotrichum capsici assessed as spore germination at 5 ug/ml after 48 to 96 hr (reference value: 70.2 CFU); format: functional
Colletotrichum truncatum [16] = assay: Fungicidal activity against Colletotrichum capsici assessed as mycelial biomass at 1 ug/ml incubated 16 hr photoperiod for 20 days (reference value: 675 mg); format: functional
Colletotrichum truncatum [17] = assay: Fungicidal activity against Colletotrichum capsici assessed as spore germination at 1 ug/ml after 48 to 96 hr (reference value: 70.2 CFU); format: functional
Colletotrichum truncatum [18] = assay: Fungicidal activity against Colletotrichum capsici assessed as spore germination at 25 ug/ml after 48 to 96 hr (reference value: 70.2 CFU); format: functional
Colletotrichum truncatum [19] = assay: Fungicidal activity against Colletotrichum capsici assessed as mycelial biomass at 50 ug/ml incubated 16 hr photoperiod for 20 days (reference value: 675 mg); format: functional
Colletotrichum truncatum [20] = assay: Fungicidal activity against Colletotrichum capsici assessed as linear growth at 0.1 ug/ml incubated 16 hr photoperiod for 20 days (reference value: 90 mm); format: functional
Colletotrichum truncatum [21] = assay: Fungicidal activity against Colletotrichum capsici assessed as sporulation at 25 ug/ml incubated 16 hr photoperiod for 20 days by haemocytometer (reference value: 0.081 x 10^6 ml'-1); format: functional
Colletotrichum truncatum [22] = assay: Fungicidal activity against Colletotrichum capsici assessed as reduction of polygalacturonase production at 1 ug/ml incubated for 10 days measured up to 120 min by Ostwald-Fenske viscometric analysis (reference value: 45.3%); format: functional; parameters: scale not given: the % may be the effect or the level left
Capsicum annuum = assay: Phytotoxicity in Capsicum annuum (pepper) at 0.1% applied as spray; format: organism-based; settings: in vivo, other
Colletotrichum truncatum [23] = assay: Fungicidal activity against Colletotrichum capsici assessed as linear growth at 1 ug/ml incubated 16 hr photoperiod for 20 days (reference value: 90 mm); format: functional
Colletotrichum truncatum [24] = assay: Fungicidal activity against Colletotrichum capsici assessed as reduction of polygalacturonase trans-eliminase production at 1 ug/ml incubated for 10 days measured up to 120 min by Ostwald-Fenske viscometric analysis (reference value: 40.8%); format: functional; parameters: scale not given: the % may be the effect or the level left
Colletotrichum truncatum [25] = assay: Fungicidal activity against Colletotrichum capsici assessed as mycelial biomass at 0.5 ug/ml incubated 16 hr photoperiod for 20 days (reference value: 675 mg); format: functional
Colletotrichum truncatum [26] = assay: Fungicidal activity against Colletotrichum capsici assessed as sporulation at 10 ug/ml incubated 16 hr photoperiod for 20 days by haemocytometer (reference value: 0.081 x 10^6 ml'-1); format: functional
Colletotrichum truncatum [27] = assay: Fungicidal activity against Colletotrichum capsici assessed as spore germination at 10 ug/ml after 48 to 96 hr (reference value: 70.2 CFU); format: functional
Colletotrichum truncatum [28] = assay: Fungicidal activity against Colletotrichum capsici assessed as linear growth at 5 ug/ml incubated 16 hr photoperiod for 20 days (reference value: 90 mm); format: functional
Colletotrichum truncatum [29] = assay: Fungicidal activity against Colletotrichum capsici assessed as inhibition of spore germination at 0.1 ug/ml after 48 to 96 hr relative to control; format: functional
Colletotrichum truncatum [30] = assay: Fungicidal activity against Colletotrichum capsici assessed as mycelial biomass at 5 ug/ml incubated 16 hr photoperiod for 20 days (reference value: 675 mg); format: functional
Colletotrichum truncatum [31] = assay: Fungicidal activity against Colletotrichum capsici assessed as spore germination at 0.5 ug/ml after 48 to 96 hr (reference value: 70.2 CFU); format: functional
Colletotrichum truncatum [32] = assay: Fungicidal activity against Colletotrichum capsici assessed as mycelial biomass at 10 ug/ml incubated 16 hr photoperiod for 20 days (reference value: 675 mg); format: functional
Colletotrichum truncatum [33] = assay: Fungicidal activity against Colletotrichum capsici infected chilli plant assessed as percent disease index at 0.1% applied as spray on day 10 post inoculation and twice every 20 days measured on day 155 post sowing in field conditions (reference value: 51 to 56.5%); format: functional
Colletotrichum truncatum [34] = assay: Fungicidal activity against Colletotrichum capsici assessed as mycelial biomass at 0.1 ug/ml incubated 16 hr photoperiod for 20 days (reference value: 675 mg); format: functional
Colletotrichum truncatum [35] = assay: Fungicidal activity against Colletotrichum capsici assessed as sporulation at 5 ug/ml incubated 16 hr photoperiod for 20 days by haemocytometer (reference value: 0.081 x 10^6 ml'-1); format: functional
Colletotrichum truncatum [36] = assay: Fungicidal activity against Colletotrichum capsici infected chilli plant assessed as percent disease index at 0.1% applied as spray on day 10 post inoculation and twice every 20 days measured on day 155 post sowing in green house conditions (reference value: 62.5 to 68.6%); format: functional
Colletotrichum truncatum [37] = assay: Fungicidal activity against Colletotrichum capsici assessed as spore germination at 50 ug/ml after 48 to 96 hr (reference value: 70.2 CFU); format: functional
Colletotrichum truncatum [38] = assay: Fungicidal activity against Colletotrichum capsici assessed as inhibition of mycelial growth; format: functional

How did the Activity (Colletotrichum truncatum [1]) turn out when COC(=O)Nc1nc2ccccc2[nH]1 [CARBENDAZIM] was run?
The Activity was 9 mm.

And the Activity (Colletotrichum truncatum [2])?
Its Activity is 2.42 ×10⁶ /ml.

What about the Activity (Colletotrichum truncatum [3]) of the same molecule?
Its Activity is 18%.

What about the Activity (Colletotrichum truncatum [4]) of the same molecule?
The Activity was 21.3 mm.

And the Activity (Colletotrichum truncatum [5])?
Its Activity is 1.49 ×10⁶ /ml.

And the Activity (Colletotrichum truncatum [6])?
Its Activity is 46 mg.

And the Activity (Colletotrichum truncatum [7])?
The Activity was 0 ×10⁶ /ml.

What about the Activity (Colletotrichum truncatum [8]) of the same molecule?
Its Activity is 7.3 cm.

And the Activity (Colletotrichum truncatum [9])?
The Activity was 66.3 mm.

What about the Crop_yield (Colletotrichum truncatum [10]) of the same molecule?
Its Crop_yield is 120.8 g.

And the Activity (Colletotrichum truncatum [11])?
The Activity was 8.5 cm.

What about the Activity (Colletotrichum truncatum [12]) of the same molecule?
The Activity was 3.53 ×10⁶ /ml.

What about the Crop_yield (Colletotrichum truncatum [13]) of the same molecule?
Its Crop_yield is 11.25 kg.

What about the Activity (Colletotrichum truncatum [14]) of the same molecule?
Its Activity is 9 mm.

And the CFU (Colletotrichum truncatum [15])?
The CFU was 3.2.

What about the Activity (Colletotrichum truncatum [16]) of the same molecule?
The Activity was 304 mg.

What about the CFU (Colletotrichum truncatum [17]) of the same molecule?
Its CFU is 10.3.

What about the CFU (Colletotrichum truncatum [18]) of the same molecule?
The CFU was 0.

What about the Activity (Colletotrichum truncatum [19]) of the same molecule?
The Activity was 0 mg.

What about the Activity (Colletotrichum truncatum [20]) of the same molecule?
The Activity was 85.5 mm.

And the Activity (Colletotrichum truncatum [21])?
Its Activity is 0 ×10⁶ /ml.

What about the Activity (Colletotrichum truncatum [22]) of the same molecule?
Its Activity is 13.5%.

What about the Activity (Capsicum annuum) of the same molecule?
The Activity was “Non-toxic”.

And the Activity (Colletotrichum truncatum [23])?
Its Activity is 45.8 mm.

What about the Activity (Colletotrichum truncatum [24]) of the same molecule?
Its Activity is 19%.

What about the Activity (Colletotrichum truncatum [25]) of the same molecule?
The Activity was 405 mg.

And the Activity (Colletotrichum truncatum [26])?
Its Activity is 0 ×10⁶ /ml.

What about the CFU (Colletotrichum truncatum [27]) of the same molecule?
Its CFU is 0.

What about the Activity (Colletotrichum truncatum [28]) of the same molecule?
The Activity was 39.5 mm.

And the inhibition at 0.1 µg/mL (Colletotrichum truncatum [29])?
The inhibition at 0.1 µg/mL was 35%.

And the Activity (Colletotrichum truncatum [30])?
The Activity was 186 mg.

And the CFU (Colletotrichum truncatum [31])?
Its CFU is 32.2.

What about the Activity (Colletotrichum truncatum [32]) of the same molecule?
The Activity was 82 mg.

And the PDI (Colletotrichum truncatum [33])?
The PDI was 27.5%.

What about the Activity (Colletotrichum truncatum [34]) of the same molecule?
Its Activity is 570 mg.

And the Activity (Colletotrichum truncatum [35])?
Its Activity is 1.03 ×10⁶ /ml.

And the PDI (Colletotrichum truncatum [36])?
Its PDI is 27.7%.

And the CFU (Colletotrichum truncatum [37])?
The CFU was 0.

For c1ccc2[nH]c(-c3cscn3)nc2c1 [THIABENDAZOLE], which ED50 (Colletotrichum truncatum [38]) is on record?
The ED50 was <5 ugAi/ml.

CC(C)(C)C(O)C(Oc1ccc(-c2ccccc2)cc1)n1cncn1 (configuration not stated) [BITERTANOL] was tested. Which ED50 (Colletotrichum truncatum [38]) did it give?
Its ED50 is <5 ugAi/ml.

With CCCCC(O)(Cn1cncn1)c1ccc(Cl)cc1Cl (configuration not stated) [HEXACONAZOLE] as the molecule, how does the ED50 (Colletotrichum truncatum [38]) read?
The ED50 was <5 ugAi/ml.

For C=CCOC(Cn1ccnc1)c1ccc(Cl)cc1Cl (configuration not stated) [ENILCONAZOLE], which ED50 (Colletotrichum truncatum [38]) is on record?
The ED50 was <5 ugAi/ml.
